{"source": "patent US20190353644A1", "about": "“PROFILE ANALYSIS OF CELL POLARITY” (Wake Forest University Health Sciences, priority 2018, published 2019)", "key": {"[1]": {"system": "HMT-3522 S1 mammary epithelial cells acini", "assay": "Radial profile (RP) analysis of ZO-1 distribution in acini", "type": "cell-based", "description": "The concept of radial profile (RP) analysis of epithelial polarity was tested. A macro script and two plugins for the open image analysis software ImageJ (imagej.nih.gov/ij/) were developed. Subsequently, computer code was translated for the MATLAB® computing platform and improvements were made. This new code is referred to as the RadialProfiler algorithm. MATLAB® is a more robust and versatile computing platform that allows important improvement to the approach. In particular, MATLAB® can easily process entire image folders in batch using looping functions. Batch processing has been included in the new MATLAB® version of the RP analysis that enables automated analyses of series of images. The code was designed to analyze two-channel fluorescence microscopy images. The first channel corresponds to DAPI staining of cell nuclei, whereas the second channel corresponds to an apical polarity marker (e.g., ZO-1, Par3, or actin) detected by immunofluorescence. […] Initially, two plugins were developed to compare two approaches to quantify apical polarity: (1) an analysis of the RP distribution of the signals and (2) the computation of the moment of inertia (MOI). […]\nFluorescent signals of polarity markers in 3D cell cultures were scored visually for apical localization using an Olympus IX83 epifluorescence microscope equipped with a 60× oil immersion objective (NA=1.35). […]"}, "[2]": {"system": "live S1 cell acini", "assay": "Live cell imaging of acini stained with SiR-actin", "type": "cell-based", "settings": "leptin treatment as in EXAMPLE 3", "description": "RadialProfiler can be applied to quantify epithelial markers detected by immunofluorescence (as described in Tenvooren et al., Oncogene (2019)), or to quantify cortical actin labeled in live acini with the SiR-actin dye (Cytoskeleton Inc.). DAPI and Hoechst are used to counterstain cell nuclei in fixed and live experiments, respectively.\nFor imaging, an automated IX83 microscope (Olympus) equipped with a motorized ultrasonic stage and a TruFocus Z drift compensation module was used. For RadialProfiler analyses, images are taken with either 10× (NA=0.3) or 20× (NA=0.45) air lenses, using a sCMOS camera (ORCA-Flash4.0, Hamamatsu). The RadialProfiler software was also tested with images acquired using different imaging systems, including a high content imager (Perkin Elmer Operetta CLS). RadialProfiler and the underlying approach to analyze polarity are agnostic to the imaging system. Fields of view are chosen either in an automated fashion or based on nuclear signals (DAPI or Hoechst) to avoid bias. For live cell analyses, acini are maintained at 37° C. and 5% CO2 using a stage-top incubator (Tokai Hit). The minimal resolution needed depends on the number of radial terraces used by RadialProfiler. […] It was determined that using 5-10 bins that are 2 pixels wide yields accurate measurements. […]"}, "[3]": {"system": "HMT-3522 S1 mammary epithelial cells acini", "assay": "Visual scoring of apical polarity markers in 3D acini cultures (conventional methods)", "type": "cell-based", "settings": "elevated levels of leptin; measured with conventional methods (Tenvooren et al.)", "description": "Non-neoplastic HMT-3522 S1 mammary epithelial cells were obtained from Dr. Mina Bissell (Lawrence Berkeley Laboratory) and propagated between passages 54 and 60 in H14 medium. Acinar differentiation was achieved by culturing the cells in 3D on top of a layer of Matrigel matrix (Corning) in chambered slides (Millipore), as described (10).\nFluorescent signals of polarity markers in 3D cell cultures were scored visually for apical localization using an Olympus IX83 epifluorescence microscope equipped with a 60× oil immersion objective (NA=1.35). At least 100 acini were scored per condition in each experiment. Alternatively, fluorescence images were taken with the CMOS camera (Hamamatsu, ORCA-Flash4.0) on this microscope, using a 10× (NA=0.3) objective. The ImageJ script was used to extract acini from DAPI images and to calculate the radial distribution of the signals. 150-450 acini were analyzed per condition."}, "[4]": {"system": "mammary epithelial cell line stably expressing GFP-ZO-1", "assay": "Live cell imaging of GFP-ZO-1 mammary epithelial cell line", "type": "cell-based", "settings": "leptin treatment", "description": "Immunostaining techniques have certain limitations, including (1) time consumption, (2) costs of reagents, and (3) poor time resolution. An alternative approach has been developed based on live cell imaging. Immunostaining for polarity markers is replaced by expression of polarity marker proteins tagged with a fluorescent protein (e.g., GFP-ZO-1). A mammary epithelial cell line stably expressing GFP-ZO-1 has been generated and characterized (FIGS. 9A-9B). The cell line retains apical-basal polarity (which is disturbed by leptin treatment) and expresses the recombinant marker at physiological levels. As a more flexible alternative to genetically encoded fluorescent markers of polarity, a nontoxic actin dye compatible with live cell imaging (SiR-actin) has been used. Cells are stained for 1 h with a mix of SiR-actin and Hoechst (DNA dye) before imaging. Similar results were obtained with this approach compared to the fixed, immunostaining approach described in EXAMPLE 1."}, "[5]": {"system": "apical polarity", "settings": "Yue et al., Biophys. J. 102:1215 (2012); cited from earlier work"}}, "data": [{"substance": "leptin", "values": [{"measurement": "averaged RP curves and integrated values (ZO-1 radial distribution)", "setting": "[1]; acini treated 72 h with vehicle or leptin (100 ng/ml), FIG. 8C, P<0.0001", "result": "distinct for the two treatments"}, {"measurement": "apical SiR-actin signal", "setting": "[2]", "result": "loss of apical SiR-actin signal"}, {"measurement": "apical polarity", "setting": "[3]", "result": "loss of apical polarity"}, {"measurement": "apical-basal polarity of GFP-ZO-1 cell line", "setting": "[4]", "result": "disturbed"}]}, {"substance": "lipopolysaccharide [LPS, reference compound]", "values": [{"measurement": "polarity score", "setting": "[1]; breast acini exposed to LPS, FIG. 8F", "result": "decrease in the polarity score"}]}, {"substance": "omega-6 fatty acids", "values": [{"measurement": "apical polarity", "setting": "[5]", "result": "disrupted"}]}]}
